Series [1] concerns liver growth. The experiment in a line: chart of prostaglandin derivatives: relative potency to increase liver growth. Particulars: zebrafish, in vivo. The text has this:
Another embodiment of the present invention provides for compositions and methods that modulate vertebrate tissue growth or regeneration via the prostaglandin signaling pathway. For example, prostaglandin E2 enhances vertebrate tissue regeneration. A chemical screen in zebrafish identified the prostaglandin signaling pathway as a potent modifier of liver growth during embryonic development. […] As many molecular pathways controlling embryonic development mediate tissue homeostasis in the adult, the effects of prostaglandin signaling during liver regeneration were examined. […] Fish were revived and allowed to heal in fish water.

In series [2] the test system is liver growth. The series is described as follows: liver growth, early experimental evidence. Type of series: in vivo.
Series [3] concerns cKit+Sca1+ Lineage- (KSL) bone marrow cells. The experiment in a line: murine transplantation assay with purified HSCs, CFU-S12. The class given is in vivo, mice. As for the experimental part:
To assess whether prostaglandin levels regulate wnt activity in HSCs, murine transplantation assays were performed utilizing purified HSCs. FACS-isolated cKit+Sca1+ Lineage—(KSL) bone marrow cells were transplanted into lethally irradiated recipients.

For series [4], the system named is hematopoietic stem cells (HSCs). The experiment in a line: HSC formation in zebrafish embryos (runx1, c-myb expression), with heat-shock inducible wnt modulators. Type of series: in vivo. As to the method: The functional consequences of the PGE2/wnt interaction in HSC formation during embryonic development were analyzed by examining the expression of the HSC markers runx1 and c-myb. Heat shock induction of a canonical wnt ligand, wnt8, at ten somites led to enhanced HSC formation at 36 hours post fertilization (hpf; 47/54). When wnt8 induction was followed by exposure to indomethacin (10 μM, 16-36 hpf) HSC formation was reduced to or below wild-type levels ( 43/46).
Inducible negative regulators of wnt activity were used in combination with dmPGE2 treatment to functionally localize the interaction between the PG and wnt pathways. Dkk1 antagonizes the wnt pathway at the level of membrane binding and the initiation of the wnt signaling cascade. Dkk induction in hs:dkk1 transgenic embryos inhibited HSC development ( 34/49). Exposure to exogenous dmPGE2 rescued the dkk1-mediated effect on HSC formation ( 28/51, 10 μM, 16-36 hpf). Axin is a central component of the β-catenin destruction complex and thus a negative regulator of the wnt signaling cascade in the cytosolic compartment. […] Similarly, a dominant-negative form of the β-catenin transcriptional co-activator TCF abolished HSC formation ( 60/62), and no rescue was affected via dmPGE2 exposure.
The wnt pathway can actively enhance HSC proliferation through signaling from the HSC niche as well as within HSCs themselves. PGE2 regulates HSC formation at the level of the vascular niche as well as within the HSCs. North et al., 2007. In order to identify transcriptional programs regulated by the wnt signaling pathway, genes involved in HSC development were analyzed by qPCR.
The functional interaction of signaling processes in the zebrafish, down stream from PG, was explored by increasing camp production using forskolin and inhibiting PKA with H89. […] Furthermore, the rescue of dkk effects by dmPGE2 was eliminated by H89.
Heat shock activation/repression of wnt signaling: Embryonic heat-shock experiments were conducted at 38° C. for a duration of 20 minutes unless otherwise noted. Genotype was determined by the presence of GFP fluorescence at three hours post heat-induction, non-fluorescence (wild-type) siblings were used as controls.
(§1) In situ hybridization: Paraformaldehyde (PFA)-fixed embryos were processed for in situ hybridization using standard zebrafish protocols such as those found on the internet at, for example, ZFIN: The Zebrafish Model Organism Database (hosted by the Univ. Oregon, Eugene, Oreg.). The following RNA probes were used to detect alterations in endodermal and liver development: GFP, LFABP, sterol carrier protein, transferrin, foxA3, insulin, trypsin, and IFABP. Changes in expression compared to wild-type controls are reported as the # altered/# scored per genotype; a minimum of three independent experiments were conducted per analysis.

The test system of series [5] is adult zebrafish liver. The series is described as follows: liver regeneration and wound healing after 1/3 partial hepatectomy in adult zebrafish. Type of series: in vivo. The settings on record: for wound healing at the incision site: skin wounds following partial hepatectomy. The source says:
Following ⅓ partial hepatectomy, the zebrafish liver regenerates within five days to seven days.
As many molecular pathways controlling embryonic development mediate tissue homeostasis in the adult, the effects of prostaglandin signaling during liver regeneration were examined. […] Fish were revived and allowed to heal in fish water.
To test the requirement of functional prostaglandin signaling during regeneration, fish were exposed to the dual-specific cox inhibitor, indomethacin, from hour 6 to hour 18 following partial hepatectomy.
Liver Resection: Folling administration of tricaine anesthetic, ⅓ partial hepaectomy of the adult zebrafish liver was performed under brightfield imaging on a dissection microscope. An incision was made using microdissection scissors posterior to the heart on the left lateral portion of the abdomen.

The subject of series [6] is wnt activity. The experiment in a line: wnt activity in TOP:dGFP wnt reporter zebrafish embryos (in situ hybridization and qPCR for GFP). Particulars: for wnt activity in the developing brain, liver and gut: developing zebrafish, TOP:dGFP. The class given is in vivo. The text has this: An embodiment of the present invention provides for manipulation of the genetic interaction between PGE2 and wnt/β-catenin signaling, which regulates developmental specification of stem cells and regeneration. Briefly, prostaglandin (PG) E2 is required for the formation and function of hematopoietic stem cells (HSCs) in vivo, yet its mechanism of action in these cells is not completely understood.
The following RNA probes were used to detect alterations in endodermal and liver development: GFP, LFABP, sterol carrier protein, transferrin, foxA3, insulin, trypsin, and IFABP. Changes in expression compared to wild-type controls are reported as the # altered/# scored per genotype; a minimum of three independent experiments were conducted per analysis.

For series [7], the system named is endodermal and hepatic progenitor cells. The series is described as follows: endodermal progenitors (foxA3) and liver size (lfabp) in zebrafish embryos, in situ hybridization. The class given is in vivo.
From the text: To determine whether the interaction of PGE2 and wnt/β-catenin signaling is a conserved regulator of stem and progenitor cell populations in other tissues, endodermal and hepatic progenitor cells were examined during zebrafish development. […] ( 51/56), as detected by expression of liver fatty acid binding protein (lfabp). […] This finding is supported by the detection of various components of PGE2 signaling in foxA3 positive cells.
The APC mutant zebrafish to model constitutive activation of the wnt signaling pathway, was used to characterize the effects of the wnt/PG interaction in foxA3+ endodermal progenitors at 48 hpf. APC+/− embryos have enhanced foxA3 expression and an increased liver bud ( 88/93) as well as increased liver size ( 68/75) compared to wild-type siblings. […] Both cyclinD1 and cmyc were co-regulated by wnt and prostaglandin during development which may indicate that PGE2 exerts its effects on stem cells through enhanced cell cycling and proliferation.
as §1

Series [8] relates to stem and progenitor cell population. The series is described as follows: hematopoietic recovery following irradiation in the adult zebrafish (kidney marrow). Type of series: in vivo. The settings on record: zebrafish. As to the method:
It has been hypothesized that wnt activation regulates HSC self-renewal and repopulation. Wnt activation is also thought to be involved in carcinogenesis, however, making the concept of direct enhancement of wnt signaling problematic. Whether regulation of wnt activity by prostaglandin can effectively modulate HSC homeostasis in the adult, was determined by observing hematopoietic recovery following irradiation in the zebrafish. […] APCMin/+ mice have elevated β-catenin levels due to loss of APC function in the destruction complex.

Consider 11 compounds from patent US10736906B2, “Method to enhance tissue regeneration” (CHILDREN'S MEDICAL CENTER CORPORATION, priority 2006, dated 2020).

For the compound `CCCCC[C@H](O)/C=C/[C@H]1[C@H](O)CC(=O)[C@@H]1C/C=C/CCCC(=O)O` (relative stereo) [5-trans PGE2], the “toxicity noted in liver growth chart” value in series [1] is on record as “toxic”.
Take `C[C@]12CC[C@@H]3c4ccc(O)cc4CC[C@H]3[C@@H]1CC[C@@H]2O` [3-estradiol]: the “effect on liver growth” value in series [2] is “inhibited”.
Same read-out and setting: then `CC1=C(/C=C/C(C)=C/C=C/C(C)=C/C(=O)O)C(C)(C)CCC1` [All-trans retinoic acid], with “enhanced”.
As for `O=C1Nc2cc(Br)ccc2/C1=C1/Nc2ccccc2/C1=N\O` [BIO], in series [3] (BIO 0.05 mg/kg, p=0.03), the CFU-S12 increase is 2 fold. Further, in series [3] (FIG. 11 legend), the “early spleen colony formation following bone marrow transplantation” value was “enhances early spleen colony formation”.
For the compound `CC1=C(/C=C/C(C)=C/C=C/C(C)=C/C=C/C=C(C)/C=C/C=C(C)/C=C/C2=C(C)CCCC2(C)C)C(C)(C)CCC1` [Beta-Carotene], in series [2], the “effect on liver growth” value was “inhibited”.
`O=S(=O)(NCCNC/C=C/c1ccc(Br)cc1)c1cccc2cnccc12` [H89]: in series [4] (PKA inhibition), the “effect on increased HSC formation induced by dmPGE2” value is recorded as “reduced the increased HSC formation” and the “effect on the rescue of dkk effects by dmPGE2” value is on record as “eliminated”.
For `CCCCC[C@H](O)/C=C/[C@H]1[C@H](O)CC(=O)[C@@H]1C/C=C\CCCC(=O)O` [PGE2, Prostaglandin E2], the “wound healing at the incision site” value in series [5] was “heal faster and to a greater extent”. Further, the “wnt activity in the developing brain, liver and gut” value in series [6] was “increased wnt activity”.
As to `CC1=C(/C=C/C(C)=C/C=C/C(C)=C/CO)C(C)(C)CCC1` [Retinol], the “effect on liver growth” value in series [2] is on record as “enhanced”.
As for `CCCCC(C)(C)[C@H](O)/C=C/[C@H]1[C@H](O)CC(=O)[C@@H]1C/C=C\CCCC(=O)O` [dmPGE2, dimethyl-prostaglandin E2], in series [4] (axin induced at ten somites), the “rescue of axin-mediated inhibition of HSC formation” value was “could not be overcome”. Also, in series [4] (dnTCF induction), the “rescue of dominant-negative TCF-mediated loss of HSC formation” value is listed as “no rescue”. For the same compound, the “rescue of dkk1-mediated effect on HSC formation (# altered/# scored)” value in series [4] (hs:dkk1 embryos, 10 μM, 16-36 hpf) is given as 28/51. The “effects of wnt8/dkk1 induction on runx1, cmyb, flk1, ephB2 expression (qPCR)” value in series [4] (indomethacin added to wnt8, dmPGE2 added to dkk1) is “could be modified”. In addition, in series [7] (APC+/− embryos), the “enhanced endodermal progenitors (# altered/# scored)” value is 47/54 and the “enhanced liver size (# altered/# scored)” value is 75/81. Besides, in series [7] (exogenous dmPGE2), the “rescue of liver growth inhibited by morpholino knock-down of cox1 or cox2” value was “rescued fully”. Besides, in series [7] (wild-type embryos), the “expanded foxA3 population with increased liver anlage (# altered/# scored)” value is on record as 75/83 and the “increased liver size (# altered/# scored)” value was 88/92. In series [7] (zebrafish embryos, by 72 hours post-fertilization), the “liver size / liver development compared to controls” value is “enhanced liver development”. Further, the liver vascularity result in series [5] (compared to untreated fish) is “increases in liver vascularity”. Moreover, in series [5] (exposure following resection (indomethacin hour 6 to 18; day 1 and day 3)), the “liver regrowth compared to controls” value is given as “enhanced liver regrowth”. Also, in series [5] (indomethacin: by day 5 post-resection), the “complete regeneration of the liver” value was “faster complete regeneration”. Moreover, in series [5], the “wound healing at the incision site” value is “more rapid wound healing”. In addition, the “kidney marrow repopulation following injury” value in series [8] is given as “enhance kidney marrow repopulation”. Also, the “wnt-active cells in the aorta-gonad mesonephros (AGM)” value in series [6] (10 μM, vs. 3±1.8 cells) amounted to 12±3.4 cells. For the same compound, in series [6], the “wnt activity in the developing brain, liver and gut” value is on record as “enhance wnt signaling”. The “induction of wnt activity, qPCR for GFP” value in series [6] (whole embryo extracts) is on record as 2 fold.
Take BMS189453: the “effect on liver growth” value in series [2] is listed as “inhibited”.
On the same count and under the same terms, then Vitamin D, with “enhanced”.
